{"source": "PubChem BioAssay AID1918994", "about": "(Molecular Pharmacology Branch, DTP, NCI, 2023);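 note: spheroids exposed to compounds for seven days after three days of growth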", "system": "292921-168-R-J2-PDC complex spheroid growth", "experiment": "Anticancer human tumor 292921-168-R-J2-PDC patient-derived pancreatic carcinoma cell line growth inhibition [AhR]", "conditions": "for IC50: curve of first compound; for viability, T/C: stronger effect = lower value", "procedure,_shortened": "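Spheroids combined tumor cells with HUVEC endothelial cells and human MSCs as stroma. AhR antagonists were paired with standard or investigational drugs, each dosed in half-log steps down from near clinical Cmax, or from 10 microM where Cmax was unknown.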", "key": {"[1]": {"conditions": "second compound 0.1 µM, first compound 0.0316 µM"}, "[2]": {"conditions": "second compound 0.1 µM, first compound 0.1 µM"}, "[3]": {"conditions": "second compound 0.1 µM, first compound 0.316 µM"}, "[4]": {"conditions": "second compound 0.1 µM, first compound 1 µM"}, "[5]": {"conditions": "second compound 0.1 µM, first compound 3.16 µM"}, "[6]": {"conditions": "second compound 0.1 µM, first compound 10 µM"}, "[7]": {"conditions": "second compound 0.316 µM, first compound 0.0316 µM"}, "[8]": {"conditions": "second compound 0.316 µM, first compound 0.1 µM"}, "[9]": {"conditions": "second compound 0.316 µM, first compound 0.316 µM"}, "[10]": {"conditions": "second compound 0.316 µM, first compound 1 µM"}, "[11]": {"conditions": "second compound 0.316 µM, first compound 3.16 µM"}, "[12]": {"conditions": "second compound 0.316 µM, first compound 10 µM"}, "[13]": {"conditions": "second compound 1 µM, first compound 0.0316 µM"}, "[14]": {"conditions": "second compound 1 µM, first compound 0.1 µM"}, "[15]": {"conditions": "second compound 1 µM, first compound 0.316 µM"}, "[16]": {"conditions": "second compound 1 µM, first compound 1 µM"}, "[17]": {"conditions": "second compound 1 µM, first compound 3.16 µM"}, "[18]": {"conditions": "second compound 1 µM, first compound 10 µM"}, "[19]": {"conditions": "second compound 3.16 µM, first compound 0.0316 µM"}, "[20]": {"conditions": "second compound 3.16 µM, first compound 0.1 µM"}, "[21]": {"conditions": "second compound 3.16 µM, first compound 0.316 µM"}, "[22]": {"conditions": "second compound 3.16 µM, first compound 1 µM"}, "[23]": {"conditions": "second compound 3.16 µM, first compound 3.16 µM"}, "[24]": {"conditions": "second compound 3.16 µM, first compound 10 µM"}, "[25]": {"conditions": "second compound 10 µM, first compound 0.0316 µM"}, "[26]": {"conditions": "second compound 10 µM, first compound 0.1 µM"}, "[27]": {"conditions": "second compound 10 µM, first compound 0.316 µM"}, "[28]": {"conditions": "second compound 10 µM, first compound 1 µM"}, "[29]": {"conditions": "second compound 10 µM, first compound 3.16 µM"}, "[30]": {"conditions": "second compound 10 µM, first compound 10 µM"}}, "data": [{"smiles": "Nc1ccccc1NC(=O)c1ccc(CNC(=O)OCc2cccnc2)cc1", "note": "+ Cc1ccccc1N=Nc1ccc(NC(=O)c2ccnn2C)c(C)c1", "values": [{"measurement": "IC50", "setting": "second compound 0.1 µM", "result": 539, "unit": "nM"}, {"measurement": "IC50", "setting": "second compound 0.316 µM", "result": 612, "unit": "nM"}, {"measurement": "IC50", "setting": "second compound 1 µM", "result": 277, "unit": "nM"}, {"measurement": "IC50", "setting": "second compound 3.16 µM", "result": 229, "unit": "nM"}, {"measurement": "IC50", "setting": "second compound 10 µM", "result": "< 31.6", "unit": "nM"}, {"measurement": "viability, T/C", "setting": "[1]", "result": 66.5, "unit": "%"}, {"measurement": "viability, T/C", "setting": "[2]", "result": 65.1, "unit": "%"}, {"measurement": "viability, T/C", "setting": "[3]", "result": 57, "unit": "%"}, {"measurement": "viability, T/C", "setting": "[4]", "result": 40.9, "unit": "%"}, {"measurement": "viability, T/C", "setting": "[5]", "result": 27.3, "unit": "%"}, {"measurement": "viability, T/C", "setting": "[6]", "result": 12, "unit": "%"}, {"measurement": "viability, T/C", "setting": "[7]", "result": 66.8, "unit": "%"}, {"measurement": "viability, T/C", "setting": "[8]", "result": 65.8, "unit": "%"}, {"measurement": "viability, T/C", "setting": "[9]", "result": 58.9, "unit": "%"}, {"measurement": "viability, T/C", "setting": "[10]", "result": 42.8, "unit": "%"}, {"measurement": "viability, T/C", "setting": "[11]", "result": 26.1, "unit": "%"}, {"measurement": "viability, T/C", "setting": "[12]", "result": 12.8, "unit": "%"}, {"measurement": "viability, T/C", "setting": "[13]", "result": 63.9, "unit": "%"}, {"measurement": "viability, T/C", "setting": "[14]", "result": 54.5, "unit": "%"}, {"measurement": "viability, T/C", "setting": "[15]", "result": 52.6, "unit": "%"}, {"measurement": "viability, T/C", "setting": "[16]", "result": 35.9, "unit": "%"}, {"measurement": "viability, T/C", "setting": "[17]", "result": 26.5, "unit": "%"}, {"measurement": "viability, T/C", "setting": "[18]", "result": 12.3, "unit": "%"}, {"measurement": "viability, T/C", "setting": "[19]", "result": 54, "unit": "%"}, {"measurement": "viability, T/C", "setting": "[20]", "result": 55, "unit": "%"}, {"measurement": "viability, T/C", "setting": "[21]", "result": 50.7, "unit": "%"}, {"measurement": "viability, T/C", "setting": "[22]", "result": 33.4, "unit": "%"}, {"measurement": "viability, T/C", "setting": "[23]", "result": 23.7, "unit": "%"}, {"measurement": "viability, T/C", "setting": "[24]", "result": 10.3, "unit": "%"}, {"measurement": "viability, T/C", "setting": "[25]", "result": 48.9, "unit": "%"}, {"measurement": "viability, T/C", "setting": "[26]", "result": 42.7, "unit": "%"}, {"measurement": "viability, T/C", "setting": "[27]", "result": 34.7, "unit": "%"}, {"measurement": "viability, T/C", "setting": "[28]", "result": 32.3, "unit": "%"}, {"measurement": "viability, T/C", "setting": "[29]", "result": 17.7, "unit": "%"}, {"measurement": "viability, T/C", "setting": "[30]", "result": 8.67, "unit": "%"}]}, {"smiles": "O=C(c1cc(Cc2n[nH]c(=O)c3ccccc23)ccc1F)N1CCN(C(=O)C2CC2)CC1", "note": "+ Cc1ccccc1N=Nc1ccc(NC(=O)c2ccnn2C)c(C)c1", "values": [{"measurement": "IC50", "setting": "second compound 0.1 µM", "result": "> 10000", "unit": "nM"}, {"measurement": "IC50", "setting": "second compound 0.316 µM", "result": "> 10000", "unit": "nM"}, {"measurement": "IC50", "setting": "second compound 1 µM", "result": "> 10000", "unit": "nM"}, {"measurement": "IC50", "setting": "second compound 3.16 µM", "result": "> 10000", "unit": "nM"}, {"measurement": "IC50", "setting": "second compound 10 µM", "result": 4550, "unit": "nM"}, {"measurement": "viability, T/C", "setting": "[1]", "result": 80, "unit": "%"}, {"measurement": "viability, T/C", "setting": "[2]", "result": 84.9, "unit": "%"}, {"measurement": "viability, T/C", "setting": "[3]", "result": 92.9, "unit": "%"}, {"measurement": "viability, T/C", "setting": "[4]", "result": 95.8, "unit": "%"}, {"measurement": "viability, T/C", "setting": "[5]", "result": 89.6, "unit": "%"}, {"measurement": "viability, T/C", "setting": "[6]", "result": 75.5, "unit": "%"}, {"measurement": "viability, T/C", "setting": "[7]", "result": 79.4, "unit": "%"}, {"measurement": "viability, T/C", "setting": "[8]", "result": 90, "unit": "%"}, {"measurement": "viability, T/C", "setting": "[9]", "result": 86.8, "unit": "%"}, {"measurement": "viability, T/C", "setting": "[10]", "result": 85.8, "unit": "%"}, {"measurement": "viability, T/C", "setting": "[11]", "result": 84.5, "unit": "%"}, {"measurement": "viability, T/C", "setting": "[12]", "result": 65.7, "unit": "%"}, {"measurement": "viability, T/C", "setting": "[13]", "result": 77.8, "unit": "%"}, {"measurement": "viability, T/C", "setting": "[14]", "result": 67.8, "unit": "%"}, {"measurement": "viability, T/C", "setting": "[15]", "result": 79.2, "unit": "%"}, {"measurement": "viability, T/C", "setting": "[16]", "result": 73.5, "unit": "%"}, {"measurement": "viability, T/C", "setting": "[17]", "result": 82.8, "unit": "%"}, {"measurement": "viability, T/C", "setting": "[18]", "result": 67.4, "unit": "%"}, {"measurement": "viability, T/C", "setting": "[19]", "result": 69.2, "unit": "%"}, {"measurement": "viability, T/C", "setting": "[20]", "result": 64.4, "unit": "%"}, {"measurement": "viability, T/C", "setting": "[21]", "result": 72.5, "unit": "%"}, {"measurement": "viability, T/C", "setting": "[22]", "result": 67.4, "unit": "%"}, {"measurement": "viability, T/C", "setting": "[23]", "result": 63.6, "unit": "%"}, {"measurement": "viability, T/C", "setting": "[24]", "result": 58.9, "unit": "%"}, {"measurement": "viability, T/C", "setting": "[25]", "result": 50.6, "unit": "%"}, {"measurement": "viability, T/C", "setting": "[26]", "result": 59.5, "unit": "%"}, {"measurement": "viability, T/C", "setting": "[27]", "result": 54.6, "unit": "%"}, {"measurement": "viability, T/C", "setting": "[28]", "result": 62.6, "unit": "%"}, {"measurement": "viability, T/C", "setting": "[29]", "result": 49.7, "unit": "%"}, {"measurement": "viability, T/C", "setting": "[30]", "result": 43.8, "unit": "%"}]}]}
